These results are taken from US6242478A, “Five member ring sulfenate esters and thiosulfinate esters” (Wake Forest University, priority 1999, dated 2001).

Data set [1] has as its system DT-diaphorase (NQO1) mRNA. Put plainly: NQO1 mRNA induction, Northern blot. Format: cell-based, mouse. The settings on record: 80 μM, 24 hours. The protocol:
(§1) BNL.CL2 cells were treated with Oltipraz, compound 121 described above, and compound 123 described above. All compounds were applied to the cells at 100 micromolar concentration for 24 hours.
(§2) Cells were exposed to compounds at a final concentration of 80 μM for 24 hours. RNA was isolated and analyzed by Northern blotting for the expression of the indicated genes. Control cells were incubated with vehicle alone (0.4% DMSO).
(§3) Northern blot: Treatment of BNL.CL2 cells with 100 μM Oltipraz, ALH-556, and ALH-562, ALH-561, ED 13.4, ED 14.6, DCF 070, ALH-490
(§4) BNL.CL2 cells (normal mouse embryonic liver cell line) were plated at ~3×10^5 cells/ml, grown for 16-24 hours, and treated with 0 μM and 100 μM Oltipraz, ALH-556 (121), and ALH-562 (123) for 24 hours. All three compounds were dissolved in DMSO and the final DMSO concentration present in all treatment conditions was 0.2%. BNL.CL2 cells were harvested by trypsinization and total RNA was isolated using the Trizol reagent (Gibco BRL) according to the manufacturer's procedures. 15 μg of RNA were run on a 1.1% agarose/6.6% formaldehyde gel and transferred overnight onto nitrocellulose membranes by capillary transfer using 20×SSC as transfer buffer. Subsequent to RNA transfer, the nitrocellulose membrane was baked at 80° C. for 2 hours. RNA was analyzed using a radiolabeled mouse ferritin H and human GST-α c-DNA. A human β-actin probe was used as an internal standard. The c-DNA probes were labeled with [α^32 P]dCTP by a random prime labeling. Hybridization of the c-DNA probes to the nitrocellulose membrane was performed at 68° C. for 60 minutes using the Quick-Hyb solution (Stratagene). Membranes were subjected to phosphoimager analysis after hybridization.

For data set [2], the system named is GST alpha mRNA in BNL.CL2 cells. The data set is described as follows: GST alpha mRNA induction, Northern blot. The data set is classed as cell-based, mouse. The note with it: for GST α induction (mRNA): 80 μM, Northern blot; for GST α induction (mRNA) / activation at 100 µM: 24 hours; for activation at 100 µM: Mus musculus, BNL CL.2, BNL.CL2 cells, 100 micromolar, read-out: increase in GST alpha mRNA levels. The protocol:
as §1, §2, §3, §4

The test system of data set [3] is Ferritin H mRNA. The data set is described as follows: Ferritin H mRNA induction, Northern blot. Format: cell-based, mouse. The settings on record: 80 μM, 24 hours. The protocol: as §1, §2, §3, §4
Data set [4] deals with GST alpha mRNA in BNL.CL2 cells. The data set is described as follows: GST alpha mRNA induction, Northern blot. Format: cell-based, mouse. The note with it: 48 and 72h post treatment, in words.
In data set [5] the test system is Sp1. The note with it: in words; cited from earlier work.
For data set [6], the system named is NCp7 protein. The note with it: cited from earlier work; for ejection of zinc from NCp7: in words.
In data set [7] the test system is fresh human monocyte/macrophage cultures. The settings on record: toxicity; cited from earlier work.
The test system of data set [8] is HIV-1ADA. The note with it: fresh human monocyte/macrophage cultures, cited from earlier work.
Data set [9] has as its system enzymatic activities of the viral replication cycle. The settings on record: in words; cited from earlier work.
In data set [10] the test system is CEM-SS cells. The settings on record: cited from earlier work.
In data set [11] the test system is GATA-1. The settings on record: in words; cited from earlier work.
Data set [12] deals with T1, NCp7 (Human immunodeficiency virus type 1 group M subtype B, UniProt P12493).
T1 construct: HIV-1 nucleocapsid protein (NCp7)
The note with it: 50 μM, reference compounds; cited from earlier work.

In data set [13] the test system is HIV-1RF. The settings on record: cited from earlier work.
Data set [14] concerns HeLa nuclear extract. The note with it: CMV promoter, duck HBV sequence; cited from earlier work.
Data set [15] has as its system poly (ADP-ribose) polymerase (PARP). The settings on record: in words; cited from earlier work.
The conditions of data set [16]: Dimitrov et al., 1992; cited from earlier work.
Data set [17] concerns GST. The settings on record: rats; cited from earlier work.
In data set [18] the test system is GST. The note with it: mice; cited from earlier work.
Data set [19] relates to HIV-1. The note with it: Prochaska et al., 1993; cited from earlier work.
Data set [20] deals with phase II enzymes. The settings on record: in words; cited from earlier work.

pEC50, pIC50: −log10 of the molar value. Read-outs that look alike come from different tables or passages of the source.

Take `CC1=C(C2=CCCCC2)S(=O)OC1` (centres unmarked) [compound 123, 4-methyl-5-cyclohexenyl-1,2-oxathiol-4-en-1-yl oxide]: in data set [1], the “NQO1 induction (mRNA)” value is “+”. Besides, in data set [2], the “GST α induction (mRNA)” value is reported as “+” and the activation at 100 µM came out at 430%. Moreover, in data set [2] (in words), the “inducing activity (GST, NQO1 and Ferritin H)” value is listed as “high levels of inducing activity”. In [3], the “Ferritin H induction (mRNA)” value is given as “+”. Moreover, the “time course of GST levels” value in [4] is reported as “slight additional increases in GST levels”.

As for `O=S1(=O)C[C@H](O)[C@H](O)CS1` (relative stereo) [compound 8], the “specific binding of Sp1 to DNA target” value in data set [5] is given as “does not affect poly (ADP-ribose) polymerase (PARP) activity or alter specific binding”. Besides, the figures for the “ejection of zinc from NCp7” value in data set [6] and in [6] (listed as NSC 624151 (8)) were “promoted ejection of zinc” and “found to promote zinc ejection from the NCp7 protein”, respectively. Also, the “TSQ NCp7 Assay” value in data set [6] (unit not given) is given as 17. Further, the pIC50 in data set [7] is less than 4.00; in data set [10] (toxicity, CEM-SS cells, read-out: XTT assay IC50) it was 3.74; in [10] (two fold excess of glutathione (GSH), read-out: XTT assay IC50 with GSH) it was less than 3.70. For the same molecule, the pEC50 was 5.10 in data set [8] (HIV-1ADA); 5.18 in data set [13] (CEM-SS cells, HIV-1RF, read-out: XTT assay EC50); 4.19 in [13] (two fold excess of glutathione (GSH), read-out: XTT assay EC50 with GSH). Besides, the “activity against replication of monocytotropic HIV-1ADA” value in data set [8] (in words) is on record as “active”. Moreover, the “effect on enzymatic activities of the viral replication cycle” value in [9] is given as “no other observable effect”. Moreover, the “specific binding of GATA-1 to DNA target” value in data set [11] was “does not affect poly (ADP-ribose) polymerase (PARP) activity or alter specific binding”. Further, in [12], the “NCp7 Trp37 Assay, % Decrease RFU/30 min, without GSH” value was 17 % Decrease RFU/30 min. The “activity against HIV-1 in XTT-based cytoprotection assay” value in [13] (in words) is listed as “active”. In addition, in data set [14], the in vitro transcription result is “did not significantly alter”. Moreover, the “effect on PARP activity” value in data set [15] is on record as “does not affect”.

For the molecule `Cc1c(-c2cnccn2)ssc1=S` [Oltipraz], the toxicities result in [16] is “photosensitivity/heat intolerance, GI effects, and neurologic toxicities”. For the same molecule, the “NQO1 induction (mRNA)” value in data set [1] is listed as “+”. Further, the “elevation of GST levels” value in [17] is recorded as “elevate levels of GST”. Further, in data set [18], the “elevation of GST levels” value is recorded as “elevate levels of GST”. Also, in data set [2], the “GST α induction (mRNA)” value is recorded as “+” and the activation at 100 µM was 340%. For the same molecule, the “prevention of HIV-1 replication” value in data set [19] is reported as “prevent HIV-1 replication”. In addition, the “induction of phase I / phase II enzymes” value in data set [20] was “monofunctional inducers”. In [3], the “Ferritin H induction (mRNA)” value is “+”.
